For assay [1], the system named is Oxygen consumption (mitochondrial function). Briefly: Oxygen consumption assay (MitoXpress probe). The assay is classed as cell-based. Particulars: 5 h, MitoXpress probe signal, kinetic analysis at 37° C. for 5 hours, compared to untreated cells. The source says: Oxygen consumption is one of the most informative and direct measures of mitochondrial function and can be measured, for example, by using the MitoXpress® assay (Luxcel MX-2001, Luxcel Biosciences). The MitoXpress® probe is one of a family of phosphorescent oxygen sensitive probes. The assay exploits the ability of oxygen to quench the excited state of the MitoXpress® probe. As the test material respires (i.e. the cells), oxygen is depleted in the surrounding solution/environment, which increases the probe phosphorescence signal. Changes in oxygen consumption reflecting changes in mitochondrial activity are seen as changes in the MitoXpress® probe signal over time.
Cells were seeded in 96 well black plates with transparent bottoms (Greiner Bio-One cat. no. 655090) at a density of 50′000 cells/well in a final volume of 100 μL. After 24 hours the incubation media was removed and 150 μL of fresh media containing inhibitors at different concentrations was added to each well. Then, 10 μL of MitoXpress® and 150 μL mineral oil were added per well. Reading from the top of the plate, kinetic analysis was performed at 37° C. for 5 hours using a Synergy 4 plate reader (BioTek) and Time-resolved Fluoresence (TRF) wavelengths of 380/11 nm excitation and 650/20 nm emission or 665/40 emission (30 microsecond delay time, 100 microsecond integration time, gain or sensitivity settings set at either medium or high). IC50s were calculated as the concentration that inhibits 50% of the phosphorescent oxygen sensitive probe signal (MitoXpress®) as compared to untreated cells.

In another assay the test system is HeLa galactose cells. Briefly: Cell growth and proliferation assay of HeLa galactose cells (crystal violet). Particulars: Homo sapiens, HeLa, 72 h, 72 hours incubation, crystal violet staining, absorbance at 590 nm. The assay is classed as cell-based. Here is the method:
The cervical tumor cell line HeLa (ATCC, CCL-2) was cultivated in DMEM medium (Invitrogen cat. no. 11971, 4.5 g/L high glucose) containing 10% fetal calf serum (Sigma cat. no. F9665) and 1% Penicillin/Streptomycin (Sigma cat. no. P0781) at 37° C. in 5% CO2. HeLa galactose cells (i.e. HeLa cells that grow in high concentrations of galactose) were generated from HeLa glucose cells (i.e. HeLa cells that grow in high concentrations of glucose) by gradually changing the amount of glucose in the media to zero glucose in the presence of galactose as a sugar source (50% galactose/50% glucose media for one week, then 75% galactose/25% glucose media for one week, to 100% galactose media in the third week). Galactose media (Invitrogen cat. no. 11966) was supplemented with 10 mM galactose (Sigma cat. no. G5388).
Cell Growth and Proliferation Assay of HeLa Galactose and Glucose Cells
HeLa galactose cells and HeLa glucose cells were seeded in 96 well plates (TPP, cat. no 92696) at 2000 and 1500 cells/well, respectively, in 100 μL of complete medium. After overnight incubation the cells were incubated for 72 hours in complete medium containing 0.001% DMSO or compounds (final concentration of DMSO 0.001%). After the medium was removed, cells were fixed and stained by adding 50 μL crystal violet staining (0.2% crystal violet (Sigma-Aldrich cat. no. C0775) in 50% methanol) per well. The plates were incubated for 1 hour at room temperature. Subsequently the stain was decanted and plates were washed 4 times with de-mineralized water. Plates were air-dried for 2 hours. The stain was dissolved by adding 100 μL buffer (0.1 M Tris pH 7.5, 0.2% SDS, 20% ethanol) per well and shaking the plates. Absorbance at 590 nm was measured using a SpectraMax® 250 plate reader (Molecular Devices). Antiproliferative/growth inhibition IC50s were calculated from concentration-response curves using GraphPad Prism software.

Each structure is given as a SMILES string.

A word on the IC50: it is the concentration at which inhibition is half-maximal. Take `Cc1nsc(NC(=O)N2CCC(Cc3ccc(C#N)cc3F)CC2)n1` [Example 32]: the results for the IC50 (in assay [1]; with HeLa galactose cells) were 116 nM and 43 nM, respectively.
The corresponding values for `Cc1nsc(NC(=O)N2CCC(Cc3ccc(C(F)(F)F)cc3F)CC2)n1` [Example 33] are 102 nM and 70 nM.
In the same order, the values of `Cc1nsc(NC(=O)N2CCC(Cc3ccc(-c4noc(C)n4)cc3F)CC2)n1` [Example 35, 4-[[2-fluoro-4-(5-methyl-1,2,4-oxadiazol-3-yl)phenyl]methyl]-N-(3-methyl-1,2,4-thiadiazol-5-yl)piperidine-1-carboxamide] are 473 nM and 240 nM.
In the same order, the values of `Cc1nsc(NC(=O)N2CCC(=Cc3ccc(C(F)(F)F)cc3F)CC2)n1` [Example 38] are 131 nM and 61 nM.
On to `Cc1nsc(NC(=O)N2CCC(=Cc3ccc(Cl)cc3F)CC2)n1` [Example 39, 4-[(4-chloro-2-fluoro-phenyl)methylene]-N-(3-methyl-1,2,4-thiadiazol-5-yl)piperidine-1-carboxamide], for which the results for the IC50 (in assay [1]; with HeLa galactose cells) were 69 nM and 38 nM, respectively.
The corresponding values for `Cc1nsc(NC(=O)N2CCC(Cc3c(F)cc(C(F)(F)F)cc3F)CC2)n1` [Example 40, 4-[[2,6-difluoro-4-(trifluoromethyl)phenyl]methyl]-N-(3-methyl-1,2,4-thiadiazol-5-yl)piperidine-1-carboxamide] are 48 nM and 32 nM.
In the same order, the values of `Cc1nsc(NC(=O)N2CCC(=Cc3ccc(N4CCCC4)cc3F)CC2)n1` [Example 45, 4-[(2-fluoro-4-pyrrolidin-1-yl-phenyl)methylene]-N-(3-methyl-1,2,4-thiadiazol-5-yl)piperidine-1-carboxamide] are 440 nM and 284 nM.
In the same order, the values of `Cc1nsc(NC(=O)N2CCC(Cc3ccc(N(C)C)cc3F)CC2)n1` [Example 46] are 129 nM and 47 nM.
In the case of `Cc1nsc(NC(=O)N2CCC(=Cc3ccc(N(C)C)cc3F)CC2)n1` [Example 47, 4-[[4-(dimethylamino)-2-fluoro-phenyl]methylene]-N-(3-methyl-1,2,4-thiadiazol-5-yl)piperidine-1-carboxamide], the IC50 in assay [1] worked out at 67 nM; with HeLa galactose cells it was 25 nM.
The corresponding values for `O=C(Nc1ncns1)N1CCC(Cc2ccc(Cl)cc2F)CC1` [Example 48] are 278 nM and 146 nM.
The corresponding values for `Cc1nsc(NC(=O)N2CCCC(Cc3ccc(Cl)cc3F)CC2)n1` (stereo not drawn) [Example 49, 4-[(4-chloro-2-fluoro-phenyl)methyl]-N-(3-methyl-1,2,4-thiadiazol-5-yl)azepane-1-carboxamide] are 58 nM and 21 nM.
The corresponding values for `Cc1nsc(NC(=O)N2CCN(Cc3ccc(Cl)cc3F)CC2)n1` [Example 50, 4-[(4-chloro-2-fluoro-phenyl)methyl]-N-(3-methyl-1,2,4-thiadiazol-5-yl)piperazine-1-carboxamide] are 255 nM and 197 nM.
In the case of `Cc1nsc(NC(=O)N2CCCN(Cc3ccc(Cl)cc3F)CC2)n1` [Example 51], the IC50 was found to be 182 nM in assay [1] and 67 nM in the assay with HeLa galactose cells.
On to `Cc1nsc(NC(=O)N2CCC(=Cc3ccc(OC(F)(F)F)cc3)CC2)n1` [Example 52], for which the results for the IC50 (in assay [1]; in the assay on HeLa galactose cells) were 477 nM and 271 nM, respectively.
For `Cc1nsc(NC(=O)N2CCC(Cc3ccc(OC(F)(F)F)cc3)CC2)n1` [Example 53], the IC50 in assay [1] was found to be 890 nM; in the assay with HeLa galactose cells, 329 nM.
The corresponding values for `Cc1nsc(NC(=O)N2CCC(=Cc3ccc(OC(F)(F)F)cc3F)CC2)n1` [Example 54] are 235 nM and 186 nM.
The corresponding values for `Cc1nsc(NC(=O)N2CCC(Cc3ccc(OC(F)(F)F)cc3F)CC2)n1` [Example 55] are 383 nM and 202 nM.
The corresponding values for `Cc1nsc(NC(=O)N2CCC(Oc3ccc(OC(F)(F)F)cc3)CC2)n1` [Example 56] are 1250 nM and 736 nM.

These data come from US20190142810A1, “MITOCHONDRIAL INHIBITORS FOR THE TREATMENT OF PROLIFERATION DISORDERS” (Basilea Pharmaceutica International AG, priority 2016, published 2019).
